“And” between values parts separate entries of the source, which are not always exact repeats. Identical values can stand only once.
Tested on: 282377-053-R-J1-PDC complex spheroid viability
Test: Anticancer human tumor 282377-053-R-J1-PDC patient-derived colon adenocarcinoma cell line growth inhibition [POLQ]
Conditions: for viability, T/C: stronger effect = lower value; active = viability on the fitted dose curve at most 10% of control; inactive = the rest
Procedure: Multicellular complex tumor spheroid response to Polymerase (POL) inhibitors (novobiocin, ART-558, RP6685) in combination with a variety of drugs and investigational agents in selected tumor cell lines
The POL inhibitors (novobiocin, ART-558, and RP6685) were evaluated both individually and in combination with standard of care and investigational anticancer small molecules within a complex spheroid model of solid tumors. . Complex spheroids include a stromal component modeled by human endothelial cells (HUVEC) and fibroblasts modeled by human mesenchymal stem cells (MSCs). The concentration ranges selected for each drug and investigational agent were based upon clinically achievable concentrations if the clinical Cmax of the agent was known.
Compounds. The drugs and investigational agents: novobiocin (NSC847541), ART-558 (NSC835418), RP-6685 (NSC848927), peposertib (NSC802822), ceralasertib (NSC780249), elimusertib (NSC800525), camonsertib (NSC841442), AZD-1390 (NSC803789), olaparib (NSC753686), talazoparib (NSC767125), rucaparib (NSC756644), sotorasib (NSC818433), MRTX-1133 (NSC836407), SN-38 (NSC673596), topotecan (NSC609699), epotoside (NSC141540), doxorubicin (NSC123127), gemcitabine (NSC613327), 5-fluorouracil (NSC19893), paclitaxel (NSC125973), vemurafenib (NSC761431), MSA-2 (NSC828583), SN-011 (NSC837082), adavosertib (NSC754352), prexasertib (NSC758257), carboplatin (NSC241240) and oxaliplatin (NSC266046), were obtained from the National Cancer Institute (NCI) Developmental Therapeutics Program Chemical Repository (21). The FDA-approved anticancer drug set is available from the Developmental Therapeutics Program at https://dtp.cancer.gov/organization/dscb/obtaining/. […] The stock solutions were prepared in dimethyl sulfoxide (DMSO, Sigma-Aldrich, St. Louis, MO, cat. D2650), except for the platinum compounds which were prepared in saline (Quality Biological, Gaithersburg, MD, cat. 114-055-101), at 800-fold the tested concentration and stored at -70 degrees C prior to their use. All drugs and investigational agents were tested over a range starting from a high concentration at or near the clinical Cmax and decreasing in half-log increments. If the clinical Cmax for an agent had not been determined, the highest concentration tested was 10 microM, except for SN-38, which was tested at a high concentration of 1 microM.
Cell Culture. All cells were maintained in an incubator at 37 degrees C and 5% CO2 with 95% humidity. The PDC lines were cultured according to standard operating procedures established by the NCI PDMR (https://pdmr.cancer.gov). Table 3 of the manuscript, lists the cell lines along with the number of the three cell types plated to form the mct-spheroids and media for tumor cell growth. After thawing, all PDC lines, except 997537-175-T-J1-PDC and 415267-285-R-J2-PDC, were cultured in Matrigel-coated flasks prepared with a working solution of 1X Ham's F-12 nutrient mix, without supplementation (Thermo Fisher Scientific, cat. 11765054), 100 U/mL penicillin-streptomycin (Thermo Fisher Scientific, cat. 15140122), and 2.5% Matrigel (Corning Inc., Corning, NY, cat. 354248) for the first three passages. The two PDC lines 997537-175-T-J1-PDC and 415267-285-R-J2-PDC were cultured on uncoated flasks. The 857933-349-R-J2-PDC line was cultured in 6C/Colon 1B media containing advanced DMEM/F-12 (Thermo Fisher Scientific, cat. 12634028), 10 mM HEPES (Thermo Fisher Scientific, cat. 15630080), 1X GlutaMAX supplement (Thermo Fisher Scientific, cat. 35050061), 0.1 mg/mL primocin (InvivoGen, San Diego, CA, cat. ant-pm-2), 10% defined fetal bovine serum, heat inactivated (HyClone Laboratories Inc., Logan, UT, cat. SH30070.03HI), 50% L-WRN conditioned media (ATCC, cat. CRL-3276), 1.25 mM N-Acetyl-L-cysteine (Sigma-Aldrich, cat. A9165), 10 mM nicotinamide (Sigma-Aldrich, cat. N0636), 1X B-27 supplement (Thermo Fisher Scientific, cat. 17504044), 1X N-2 supplement (Thermo Fisher Scientific, cat. […]

[1] = curve of first compound, second compound 0.0316 µM
[2] = curve of first compound, second compound 0.1 µM
[3] = curve of first compound, second compound 0.316 µM
[4] = curve of first compound, second compound 1 µM
[5] = curve of first compound, second compound 3.16 µM
[6] = curve of first compound, second compound 10 µM
[7] = second compound 0.0316 µM, first compound 0.0316 µM
[8] = second compound 0.0316 µM, first compound 0.1 µM
[9] = second compound 0.0316 µM, first compound 0.316 µM
[10] = second compound 0.0316 µM, first compound 1 µM
[11] = second compound 0.0316 µM, first compound 3.16 µM
[12] = second compound 0.0316 µM, first compound 10 µM
[13] = second compound 0.1 µM, first compound 0.0316 µM
[14] = second compound 0.1 µM, first compound 0.1 µM
[15] = second compound 0.1 µM, first compound 0.316 µM
[16] = second compound 0.1 µM, first compound 1 µM
[17] = second compound 0.1 µM, first compound 3.16 µM
[18] = second compound 0.1 µM, first compound 10 µM
[19] = second compound 0.316 µM, first compound 0.0316 µM
[20] = second compound 0.316 µM, first compound 0.1 µM
[21] = second compound 0.316 µM, first compound 0.316 µM
[22] = second compound 0.316 µM, first compound 1 µM
[23] = second compound 0.316 µM, first compound 3.16 µM
[24] = second compound 0.316 µM, first compound 10 µM
[25] = second compound 1 µM, first compound 0.0316 µM
[26] = second compound 1 µM, first compound 0.1 µM
[27] = second compound 1 µM, first compound 0.316 µM
[28] = second compound 1 µM, first compound 1 µM
[29] = second compound 1 µM, first compound 3.16 µM
[30] = second compound 1 µM, first compound 10 µM
[31] = second compound 3.16 µM, first compound 0.0316 µM
[32] = second compound 3.16 µM, first compound 0.1 µM
[33] = second compound 3.16 µM, first compound 0.316 µM
[34] = second compound 3.16 µM, first compound 1 µM
[35] = second compound 3.16 µM, first compound 3.16 µM
[36] = second compound 3.16 µM, first compound 10 µM
[37] = second compound 10 µM, first compound 0.0316 µM
[38] = second compound 10 µM, first compound 0.1 µM
[39] = second compound 10 µM, first compound 0.316 µM
[40] = second compound 10 µM, first compound 1 µM
[41] = second compound 10 µM, first compound 3.16 µM
[42] = second compound 10 µM, first compound 10 µM
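Also: spheroids exposed to compounds for seven days.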

CCCS(=O)(=O)Nc1ccc(F)c(C(=O)c2c[nH]c3ncc(-c4ccc(Cl)cc4)cc23)c1F + Cc1cccc(N(C)C(=O)C2C(O)CCN2c2nc(C)cc(C(F)(F)F)c2C#N)c1
> 10000 nM: IC50 [1] | IC50 [2] | IC50 [3] | IC50 [4] | IC50 [5] | IC50 [6]
inactive: viability, T/C [7] 95.1% | viability, T/C [8] 77.8% | viability, T/C [9] 73.6% | viability, T/C [10] 67.4% | viability, T/C [11] 76.2% | viability, T/C [12] 64.3% | viability, T/C [13] 91.8% | viability, T/C [14] 88.4% | viability, T/C [15] 66.3% | viability, T/C [16] 73.2% | viability, T/C [17] 75.7% | viability, T/C [18] 69.7% | viability, T/C [19] 92.5% | viability, T/C [20] 85.6% | viability, T/C [21] 73% | viability, T/C [22] 77.5% | viability, T/C [23] 70% | viability, T/C [24] 61.8% | viability, T/C [25] 86.9% | viability, T/C [26] 91.9% | viability, T/C [27] 90.5% | viability, T/C [28] 70.3% | viability, T/C [29] 68% | viability, T/C [30] 61.4% | viability, T/C [31] 92.1% | viability, T/C [32] 92.9% | viability, T/C [33] 72.1% | viability, T/C [34] 64.3% | viability, T/C [35] 61.5% | viability, T/C [36] 65% | viability, T/C [37] 81.6% | viability, T/C [38] 81.2% | viability, T/C [39] 77.1% | viability, T/C [40] 62.8% | viability, T/C [41] 73.5% | viability, T/C [42] 58.4%

COc1cccc2c1C(=O)c1c(O)c3c(c(O)c1C2=O)CC(O)(C(=O)CO)CC3OC1CC(N)C(O)C(C)O1 (stereo not drawn) + Nc1ccc(C#CCN(C(=O)Cc2ncc(C(F)(F)F)cc2C(F)(F)F)c2ccc(F)cc2)nn1
inactive: viability, T/C [7] 99.2% | viability, T/C [8] 98.9% | viability, T/C [9] 123% | viability, T/C [10] 94.6% | viability, T/C [11] 17.8% | viability, T/C [13] 107% | viability, T/C [14] 108% | viability, T/C [15] 110% | viability, T/C [16] 110% | viability, T/C [17] 17.6% | viability, T/C [19] 92.8% | viability, T/C [20] 108% | viability, T/C [21] 130% | viability, T/C [22] 103% | viability, T/C [23] 15.8% | viability, T/C [25] 94.2% | viability, T/C [26] 120% | viability, T/C [27] 128% | viability, T/C [28] 100% | viability, T/C [29] 10.8% | viability, T/C [31] 104% | viability, T/C [32] 108% | viability, T/C [33] 123% | viability, T/C [34] 96% | viability, T/C [37] 119% | viability, T/C [38] 142% | viability, T/C [39] 127% | viability, T/C [40] 105%
1960 nM: IC50 [1]
1910 nM: IC50 [4] | IC50 [6]
active: viability, T/C [12] 3% | viability, T/C [18] 2.63% | viability, T/C [24] 3.07% | viability, T/C [30] 4.26% | viability, T/C [35] 8.6% | viability, T/C [36] 3.58% | viability, T/C [41] 6.84% | viability, T/C [42] 3.41%
2020 nM: IC50 [3]
1830 nM: IC50 [5]
2100 nM: IC50 [2]

Cn1ncnc1[C@H]1c2n[nH]c(=O)c3cc(F)cc(c23)N[C@@H]1c1ccc(F)cc1
> 100 nM: IC50 (curve of compound)
inactive: viability, T/C (compound 0.000316 µM) 97.4% and 91% and 104% | viability, T/C (compound 0.001 µM) 95.4% and 95.3% and 93.1% | viability, T/C (compound 0.00316 µM) 76.2% and 90.7% and 93.6% | viability, T/C (compound 0.01 µM) 108% (2×) and 102% | viability, T/C (compound 0.0316 µM) 110% and 98.3% and 105% | viability, T/C (compound 0.1 µM) 90.5% and 95.2% and 106%

Cn1ncnc1[C@H]1c2n[nH]c(=O)c3cc(F)cc(c23)N[C@@H]1c1ccc(F)cc1 + Cc1cccc(N(C)C(=O)C2C(O)CCN2c2nc(C)cc(C(F)(F)F)c2C#N)c1
> 100 nM: IC50 [1] | IC50 [2] | IC50 [3] | IC50 [4] | IC50 [5] | IC50 [6]
inactive: viability, T/C (second compound 0.0316 µM, first compound 0.000316 µM) 111% | viability, T/C (second compound 0.0316 µM, first compound 0.001 µM) 86.9% | viability, T/C (second compound 0.0316 µM, first compound 0.00316 µM) 105% | viability, T/C (second compound 0.0316 µM, first compound 0.01 µM) 128% | viability, T/C [7] 98.3% | viability, T/C [8] 89.3% | viability, T/C (second compound 0.1 µM, first compound 0.000316 µM) 125% | viability, T/C (second compound 0.1 µM, first compound 0.001 µM) 125% | viability, T/C (second compound 0.1 µM, first compound 0.00316 µM) 102% | viability, T/C (second compound 0.1 µM, first compound 0.01 µM) 128% | viability, T/C [13] 91.8% | viability, T/C [14] 100% | viability, T/C (second compound 0.316 µM, first compound 0.000316 µM) 95.9% | viability, T/C (second compound 0.316 µM, first compound 0.001 µM) 114% | viability, T/C (second compound 0.316 µM, first compound 0.00316 µM) 98.2% | viability, T/C (second compound 0.316 µM, first compound 0.01 µM) 93.5% | viability, T/C [19] 111% | viability, T/C [20] 95.5% | viability, T/C (second compound 1 µM, first compound 0.000316 µM) 116% | viability, T/C (second compound 1 µM, first compound 0.001 µM) 110% | viability, T/C (second compound 1 µM, first compound 0.00316 µM) 89% | viability, T/C (second compound 1 µM, first compound 0.01 µM) 102% | viability, T/C [25] 119% | viability, T/C [26] 91.6% | viability, T/C (second compound 3.16 µM, first compound 0.000316 µM) 106% | viability, T/C (second compound 3.16 µM, first compound 0.001 µM) 130% | viability, T/C (second compound 3.16 µM, first compound 0.00316 µM) 82.9% | viability, T/C (second compound 3.16 µM, first compound 0.01 µM) 115% | viability, T/C [31] 88.5% | viability, T/C [32] 112% | viability, T/C (second compound 10 µM, first compound 0.000316 µM) 105% | viability, T/C (second compound 10 µM, first compound 0.001 µM) 102% | viability, T/C (second compound 10 µM, first compound 0.00316 µM) 105% | viability, T/C (second compound 10 µM, first compound 0.01 µM) 82.7% | viability, T/C [37] 81.5% | viability, T/C [38] 100%
